# In patent publication US4585773A, “Isoindolinyl-alkyl-piperazines” (Bristol-Myers Company, priority 1984, dated 1986):
# pIC50: −log10 of the molar value. Values joined by “and” are separate entries in the source; they are usually repeats but may differ in a detail not shown here. Equal values may be shown once. Where a name gives a salt, the structure may show the parent alone. Read-outs that look alike come from different tables or passages of the source.
# Tests used:
# α2 = assay: in vitro α2 binding, [3H]Clonidine (Table IV)
# Description: (§1) In this Example the compounds of Examples I-XI were tested in vitro for α1 and α2 binding. The compound of Example I was tested as its monochloride 2-propanolate hydrate, i.e. as C22 […] CLN4 O4 S .HCl.0.2(CH3)2 CHOH 0.15H2 O. In the testing specific brain tissues were prepared as sources of binding sites. Aliquots of the washed members are incubated with a low concentration of […]. After incubation at suitable temperature, the reaction mixture is treated to separate the membrane-bound radioligand Radioactivity is measured. Linear regression analysis of the probit value for the percent of binding occurring in the presence of varying concentrations of the compound of interest plotted against the concentration of the compound yields concentrations which inhibit 50% specific binding, the IC50. The assay buffer is 50 mM Hepes.KOH, pH 7.4. The ligand is [^3 H]WB-4101 from New England Nuclear for α1 and [^3 H]Clonidine from New England Nuclear for α2. The results are considered against phentolamine methanesulfonate (Reference) which is considered a good α-binder.
# [1] = conscious rat diuretic screen of Lipschitz (Table I); type: in vivo, rat (female Sprague Dawley; male Okamoto-Aoki); details: female Sprague Dawley rats; for response vs control in vivo at 3 mg/kg / response vs control in vivo at 30 mg/kg / response vs control in vivo at 0.3 mg/kg: Rattus norvegicus, po
# Description: With respect to diuretic utility there can be mentioned the conscious rat diuretic screen of Lipschitz, et al. (J. Pharmacol. Exp. Therap. 79, 97-110 (1943)). In this test, dose response assays of diuretic, natruiretic and kaliuretic activity are determined by oral administration of the test substance. The compounds synthesized in Examples I-XI were tested for diuretic […]. The compound of Example I was tested as its monohydrochloride 2-propanolate hydrate, i.e. as C22 […] ClN4 O4 S.HCl. 0.2(CH3)2 CHOH.0.15H2 O. Testing was carried out by the diuretic screen of Lipschitz, et al. described previously. In Table I below Volume Ratio is the ratio of total volume excreted for the test comuound compared to the total volume excreted for the control, Na^+ Ratio is the Na^+ excreted for the test compound compared to the Na^+ excreted for the control, K^+ Ratio is the K^+ excreted for the test compound compared to the K^+ excreted for the control. Female Sprague Dawley rats were used in Test Nos. 1, 2, 6, 7, 11-29. Male Okamoto-Aoki rats were used in Test Nos. 3-5 and 8-10 and testing for antihypertensive activity was carried out simultaneously on the Test Nos. 3-5 rats. In some instances, compounds were retested at the same dose level.
# [2] = tested on: α blocking activity (phenylephrine); assay: in vivo α blocking activity, phenylephrine (PE) as α-agonist (Table III); design: species or system rat; ED50: unit not given beside the values; details: for in vivo α blocking activity (in words): conclusion from Table III
# Description: In this example the compounds of Examples I (modified), II, III, V, VI, VII, VIII, IX and XI were tested in rats for in vivo α blocking activity according to methodology described at page 312 of Deitchman, et al., Journal of Pharmacological Methods, 3, 311-321 (1980). In this test phenylephrine (PE below) or norepinephrine (NE below) was administered as an α-agonist to the rats before and after dosing with the test drug and the average interpolated dose or PE/NE effecting a 50 mm Hg increase in mean arterial blood pressure was determined. Table III below records the results. In such Table, ED50 stands for such average interpolated dose and Average Dose Shift stands for the average ratio of ED50 after drug administration to ED50 before drug administration. The compound of Example I was tested as its monochloride 2-propanolate hydrate, i.e. as C22 H27 ClN4 O4 S.HCl 0.2(CH3)2 CHOH.0.15H2 O in Tests 1-5 and as the 3/4 mole hydrochloride, i.e. C22 H27 ClN 4 O4 S.3/4HCL in Tests 2a and 3a. The route was intravenous except in the case of the runs of Test Nos. 2a, 3, 3a, 26-29 the route was oral.
# α1 = assay: in vitro α1 binding, [3H]WB-4101 (Table IV)
# Description: as §1
# [3] = tested on: Spontaneously Hypertensive rat; assay: antihypertensive activity, Spontaneously Hypertensive Rat (Table II); type: in vivo; details: for antihypertensive effect (in words): conclusion from Table II (SHR, and DOCA for Examples I-IV)
# Description: Spontaneously Hypertensive Rat Male rats weighing 300-400 g, previously conditioned to the procedure, are prewarmed in a heating chamber (30° C.) for 10-20 min. and subsequently restrained in a wire holder at that temperature. Systolic blood pressure and heart rate are measured by the tailcuff technique using a pneumatic pulse transducer and a biotachometer before, and 2, 4, and 24 hours after oral administration of vehicle (0.25% Methocel in water) or test compounds suspended in vehicle at a dose volume equivalent to 5 ml/kg. Blood pressure and heart rate data are reported as changes from zero-hour measurements with vehicle control groups run periodically to confirm that the vehicle has no effect. Testing was carried out on the compounds of Examples I-XII for antihypertensive activity. In the case of all the compounds testing was carried out on the Spontaneously Hypertensive rat as described hereinbefore. In the case of the compounds of Examples I-IV testing was also carried out on the DOCA-salt Hypertensive Rat. The compound of Example I was tested as its monochloride 2-propanolate hydrate, i.e. as C22 […] ClN4 O4 S.HCl.0.2(CH3)2 CHOH.0.15H2 O in Tests 1-5; and as the 3/4 mole hydrochloride, i.e. C22 […] ClN4 O4 S: 3/4 HCl in Tests 3a, 4a, 5a-5d. Test results are set forth in Table II below wherein SHR stands for Spontaneously Hypertensive rat, DOCA stands for DOCA-salt Hypertensive Rat, ΔBP stands for the change in systolic blood pressure in mm Hg, ΔHR stands for the change in mean heart rate in beats per minute and the times set forth are the times after dosing. A peak change in ΔBP of more than 20 is considered as indicating activity.
# [4] = [3H]Clonidine, brain tissue, 50 mM Hepes.KOH, pH 7.4, read-out: α2 Binding IC50
# [5] = 3 mg/kg oral, read-out: K+ Ratio
# [6] = 3 mg/kg oral, read-out: Na+ Ratio
# [7] = 3 mg/kg oral, read-out: Volume Ratio
# [8] = 30 mg/kg oral, read-out: K+ Ratio
# [9] = 30 mg/kg oral, read-out: Na+ Ratio
# [10] = 30 mg/kg oral, read-out: Volume Ratio
# [11] = ED50 after/before drug, PE, dose 10, intravenous
# [12] = [3H]WB-4101, brain tissue, 50 mM Hepes.KOH, pH 7.4, read-out: α1 Binding IC50
Structure (SMILES),pIC50 (α2; [4]),Urinary Na/K (Test Compound) ([1]; 3 mg/kg oral),Urinary Na/K (Test Compound) ([1]; 30 mg/kg oral),"response vs control in vivo at 3 mg/kg [1, 5] [%]","response vs control in vivo at 3 mg/kg [1, 6] [%]","response vs control in vivo at 3 mg/kg [1, 7] [%]","response vs control in vivo at 30 mg/kg [1, 8] [%]","response vs control in vivo at 30 mg/kg [1, 9] [%]","response vs control in vivo at 30 mg/kg [1, 10] [%]","Average Dose Shift [2, 11]",pIC50 (α1; [12]),"ΔBP 2 hours ([3]; SHR, 30 mg/kg oral) [mm Hg]","ΔBP 4 hours ([3]; SHR, 30 mg/kg oral) [mm Hg]","ΔHR 2 hours ([3]; SHR, 30 mg/kg oral) [beats per minute]","ΔHR 4 hours ([3]; SHR, 30 mg/kg oral) [beats per minute]",antihypertensive effect (in words) [3],further results
"NS(=O)(=O)c1cc2c(cc1Cl)CN(CCCN1CCN(c3cccc(C(F)(F)F)c3)CC1)C2=O [Example IX, 6-chloro-2,3-dihydro-3-oxo-2-[3-[4-[3-(trifluoromethyl)phenyl]-1-piperazinyl]propyl]-1H-isoindole-5-sulfonamide hydrochloride hemihydrate]",< 6.00,2.99,3.67,106,127,102,140,212,184,6 ± 0.6,6.97,-34 ± 14,-32 ± 10,6 ± 17,0 ± 14,good antihypertensive effect without significantly affecting heart rate,in vivo α blocking activity (in words) [2]: weakly active; Average Dose Shift ([2]; iv): 2.2; ED50 ([2]; iv): 11.3
"NS(=O)(=O)c1cc2c(cc1Cl)CN(CCCN1CCN(Cc3ccccc3)CC1)C2=O [Example V, 6-chloro-2,3-dihydro-3-oxo-2-[3-[4-(phenylmethyl)-1-piperazinyl]propyl]-1H-isoindole-5-sulfonamide]",5.75,,4.14,,145,128,133,271,220,1.7 ± 0.3,6.03,-27 ± 10,-30 ± 14,-6 ± 15,-39 ± 14,good antihypertensive effect without significantly affecting heart rate,"Urinary Na/K (Test Compound) ([1]; 0.3 mg/kg oral): 2.33; response vs control in vivo at 0.3 mg/kg ([1]; 0.3 mg/kg oral, read-out: K+ Ratio): 99%; response vs control in vivo at 0.3 mg/kg ([1]; 0.3 mg/kg oral, read-out: Na+ Ratio): 97%; response vs control in vivo at 0.3 mg/kg ([1]; 0.3 mg/kg oral, read-out: Volume Ratio): 89%"
"Cl.N#Cc1cccnc1N1CCN(CCCN2Cc3cc(Cl)c(S(N)(=O)=O)cc3C2=O)CC1 [Example VI, 6-chloro-2-[3-[4-(3-cyano-2-pyridinyl)-1-piperazinyl]propyl]-2,3-dihydro-3-oxo-1H-isoindole-5-sulfonamide hydrochloride]",5.48,3.55,3.90,98,169,153,111,204,174,27 ± 3,6.52,-17 ± 10,-7 ± 11,6 ± 41,-10 ± 18,,in vivo α blocking activity (in words) [2]: active as in vivo α blockers; Average Dose Shift ([2]; iv): 3 ± 0.2; ED50 ([2]; iv): 9.8
"Cl.NS(=O)(=O)c1cc2c(cc1Cl)CN(CCCN1CCN(C(=O)c3ccccc3)CC1)C2=O.O [Example VII, 1-[3-[5-(aminosulfonyl)-6-chloro-1,3-dihydro-3-oxo-2H-isoindol-2-yl]propyl]-4-benzoylpiperazine hydrochloride monohydrate]",< 6.00,2.07,3.27,113,92,89,111,140,112,> 1.0,3.82,-7 ± 8,-14 ± 3,-32 ± 14,-74 ± 24,,"ED50 ([2]; ED50 of PE after test drug, dose 10, intravenous): 2.6"
"NS(=O)(=O)c1cc2c(cc1Cl)CN(CCCN1CCN(C(=O)c3ccc(F)cc3)CC1)C2=O [Example VIII, 1-[3-[5-(Aminosulfonyl)-6-chloro-1,3-dihydro-3-oxo-2H-isoindol-2-yl]propyl]-4-(4-fluorobenzoyl)piperazine]",< 6.00,2.60,3.69,94,98,89,99,142,122,1 ± 0.1,3.84,-9 ± 5,-9 ± 4,2 ± 15,24 ± 15,,
"COc1ccc(F)cc1N1CCN(CCCN2Cc3cc(Cl)c(S(N)(=O)=O)cc3C2=O)CC1 [Example XII, 6-chloro-2,3-dihydro-2-[3-[4-(3-fluoro-6-methoxyphenyl)-1-piperazinyl]propyl]-3-oxo-1H-isoindole-5-sulfonamide]",,,,,,,,,,,,,,,,good antihypertensive effect without significantly affecting heart rate,"peak change at 2 hours in ΔBP ([3]; SHR, 30 mg/kg oral): -64 mm Hg"
"Cc1ccc(N(CC2=NCCN2)c2cccc(O)c2)cc1 [phentolamine methanesulfonate, reference compound]",,,,,,,,,,,,,,,,,"pIC50 (α2; phentolamine methanesulfonate reference run in the α2 tests, read-out: Reference IC50): 8.26 and 8.51; pIC50 (α1; phentolamine methanesulfonate reference run in the α1 tests, read-out: Reference IC50): 8.43 and 8.46 and 8.32"
